{"source": "patent US20220211695A1", "about": "“MORPHINE-INDUCED RESPIRATORY DEPRESSION: BEHAVIORAL, PHRENIC AND BRAINSTEM RESPIRATORY NEURONAL EVIDENCE” (GEORGIA STATE UNIVERSITY RESEARCH FOUNDATION, INC., priority 2019, published 2022)", "key": {"Sprague Dawley rats": {"test_system": "Sprague Dawley rats", "assay": "Plethysmography of breathing after repetitive (chronic) morphine administrations, with or without cloperastine", "from_the_text": "A major adverse effect of the chronic use of opioid drugs is respiratory depression causing a […] in the United States. Via μ-Opioid receptors (MOR), respiratory neurons in the brainstem are known to be the targets, especially those in the ventral respiratory column (VRC). However, how the VRC neurons react to chronic opioid drugs remains elusive. To understand how chronic morphine exposures affect brainstem respiratory motor output, we performed these studies in Sprague Dawley rats, using repetitive morphine administrations. […] Since the MOR is coupled to GIRK channels, we applied Cloperastine, a GIRK channel blocker and a commercial OTC drug, to the rats before or after chronic morphine.\nDisclosed herein are methods for treating chronic morphine exposures and how this exposure affects brainstem respiratory motor output. Disclosed herein are studies using Sprague Dawley rats, during which repetitive morphine administrations were conducted."}, "phrenic discharges [1]": {"test_system": "phrenic discharges", "assay": "Phrenic discharge recording in spontaneously breathing rats after decerebration"}, "phrenic discharges [2]": {"test_system": "phrenic discharges", "conditions": "rat, in vivo"}, "[3]": {"test_system": "rostral ventral respiratory group (rVRG) neurons", "assay": "Extracellular recording of firing activity of respiratory neurons in the ventral respiratory group", "assay_type": "in vivo, Sprague Dawley rats", "method": "Firing activity of respiratory neurons was recorded extracellularly in the ventral respiratory group."}, "[4]": {"conditions": "50 mg/kg morphine followed by 30 mg/kg cloperastine"}}, "data": [{"molecule": "Clc1ccc(C(OCCN2CCCCC2)c2ccccc2)cc1", "note": "(stereo not drawn) [cloperastine]", "values": [{"measurement": "erratic breathing (FIG. 8)", "setting": "Sprague Dawley rats; 30 mg/kg cloperastine injected after 10 mg/kg morphine", "result": "reduction in erratic breathing"}, {"measurement": "erratic breathing (FIG. 11)", "setting": "Sprague Dawley rats; 30 mg/kg cloperastine injected first, then 10 mg/kg morphine", "result": "reduction in erratic breathing"}, {"measurement": "effect on chronic morphine-induced central hypoventilation", "setting": "Sprague Dawley rats; cloperastine applied before or after chronic morphine", "result": "reverses hypoventilation mainly by suppression the irregularity of breathing amplitude and frequency"}, {"measurement": "time at which a significant change in normalized minute ventilation occurs (FIG. 16)", "setting": "Sprague Dawley rats; cloperastine given at 20 minutes post morphine", "result": "about 45 minutes"}, {"measurement": "effect on morphine's effects on breathing frequency (FIG. 13)", "setting": "Sprague Dawley rats; cloperastine injection after morphine, normalized time course", "result": "reducing the effects of morphine of breathing frequency"}, {"measurement": "phrenic discharge pattern (FIG. 19)", "setting": "phrenic discharges [1]; [4]", "result": "erratic phrenic activity has nearly completely subsided"}, {"measurement": "Te and Ti duration (FIG. 24)", "setting": "phrenic discharges [2]", "result": "nearly the same as the control"}, {"measurement": "Te/Ti ratio (FIG. 25)", "setting": "phrenic discharges [2]", "result": "nearly identical to control"}, {"measurement": "breathing frequency (FIG. 26)", "setting": "phrenic discharges [2]", "result": "nearly identical to control"}, {"measurement": "firing activity of rVRG neurons (FIG. 31)", "setting": "[3]; [4]", "result": "return to near normal firing activity"}]}, {"molecule": "CN1CC[C@]23c4c5ccc(O)c4O[C@H]2[C@@H](O)C=C[C@H]3[C@H]1C5", "note": "[morphine]", "values": [{"measurement": "effect on breathing (minute ventilation, variation of amplitude and frequency)", "setting": "Sprague Dawley rats; 10 mg/kg morphine", "result": "causes central hypoventilation with decreased breathing minute ventilation, increased variation of both breathing amplitude & frequency"}, {"measurement": "breathing depression after repetitive morphine administrations", "setting": "Sprague Dawley rats; chronic morphine, Sprague Dawley rats", "result": "severe breathing depression was found in these rats"}, {"measurement": "time for the breathing effects to reach a plateau level", "setting": "Sprague Dawley rats; repetitive morphine administrations", "result": "3 to 4", "unit": "days"}, {"measurement": "duration of minute ventilation suppression", "setting": "Sprague Dawley rats; same dose morphine following the chronic treatments", "result": "3 to 4", "unit": "h"}, {"measurement": "suppression of minute ventilation", "setting": "Sprague Dawley rats; same dose morphine following the chronic treatments, n=16 rats, plethysmography", "result": "55.2%±4.1"}, {"measurement": "variations in tidal volume and breathing frequency", "setting": "Sprague Dawley rats; same dose morphine following the chronic treatments, plethysmography", "result": "severe variations in tidal volume and breathing frequency"}, {"measurement": "ectopic phrenic activity during expiration", "setting": "phrenic discharges [1]; after chronic morphine exposures", "result": "Ectopic phrenic activity during expiration was seen"}, {"measurement": "E-I phase-spanning neurons in the ventral respiratory group", "setting": "[3]; chronic morphine versus saline injection", "result": "A large number of E-I phase-spanning neurons were observed"}]}]}
